Laboratory results published in patent publication US20250177396A1, “POLO-LIKE KINASE 4 (PLK4) INHIBITORS, PHARMACEUTICAL COMPOSITIONS, METHODS OF PREPARATION AND USES THEREOF” (Repare Therapeutics Inc., priority 2022, published 2025).
pIC50: −log10 of the molar value.

The compounds below were run against T1, PLK4 (Homo sapiens, UniProt O00444) (assay: PLK4 NanoBRET target engagement assay). Conditions: HEK293 T cells transfected with PLK4 NanoLuc fusion vector; K-5 tracer; 2 hrs incubation.
T1 construct: expressed in transfected cells; host or cells: HEK293 T cells (ATCC CRL-3216)
T1 sequence (O00444 1-970): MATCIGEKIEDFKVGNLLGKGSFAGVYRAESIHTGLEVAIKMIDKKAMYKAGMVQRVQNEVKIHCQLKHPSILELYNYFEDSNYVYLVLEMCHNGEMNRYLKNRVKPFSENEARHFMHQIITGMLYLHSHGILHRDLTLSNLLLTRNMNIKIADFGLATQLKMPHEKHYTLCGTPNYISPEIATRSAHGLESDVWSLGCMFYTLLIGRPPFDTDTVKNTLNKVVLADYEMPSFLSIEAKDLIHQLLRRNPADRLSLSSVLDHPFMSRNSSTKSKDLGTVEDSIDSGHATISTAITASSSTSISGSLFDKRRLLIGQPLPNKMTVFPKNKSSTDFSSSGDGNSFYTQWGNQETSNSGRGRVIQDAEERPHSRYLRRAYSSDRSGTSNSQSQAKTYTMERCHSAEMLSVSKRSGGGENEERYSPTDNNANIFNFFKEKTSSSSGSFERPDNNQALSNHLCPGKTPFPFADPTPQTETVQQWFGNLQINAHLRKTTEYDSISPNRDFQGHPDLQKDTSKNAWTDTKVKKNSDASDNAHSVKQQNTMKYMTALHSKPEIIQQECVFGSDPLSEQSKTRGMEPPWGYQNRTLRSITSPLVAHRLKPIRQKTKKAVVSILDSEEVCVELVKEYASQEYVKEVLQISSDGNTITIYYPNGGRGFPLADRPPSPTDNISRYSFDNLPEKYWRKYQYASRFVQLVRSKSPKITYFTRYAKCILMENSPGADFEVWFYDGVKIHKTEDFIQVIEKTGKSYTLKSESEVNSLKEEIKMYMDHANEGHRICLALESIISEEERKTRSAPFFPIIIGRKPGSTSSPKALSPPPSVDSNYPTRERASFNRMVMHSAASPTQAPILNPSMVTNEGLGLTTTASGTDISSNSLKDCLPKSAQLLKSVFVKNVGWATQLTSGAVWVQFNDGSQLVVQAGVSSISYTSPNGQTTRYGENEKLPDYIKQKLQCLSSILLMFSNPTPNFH
Assay type: binding
Summary of the method: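 HEK293T cells transiently expressing PLK4-NanoLuc, plated at 17000 cells/well with K-5 tracer and compound, incubated 2 h at 37 °C/5% CO2. After substrate/inhibitor mix, 610/450 nm emission ratio ×1000 gave mBRET; IC50 from 4-parameter fit.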

Row | SMILES | pIC50
1 | Cc1cc(Nc2nc(N(C)c3c(F)cc(S(C)(=O)=O)cc3F)nc(-c3cnn(C)c3N3CCOC3=O)c2C2CC2)n[nH]1 [Compound 342] | 8.40
2 | CN(c1nc(Nc2cc(C3CC3)[nH]n2)c(C2CC2)c(-c2cn(C)cn2)n1)c1cc(F)c(S(C)(=O)=O)cc1F [Compound 298] | 7.96
3 | COCc1cc(Nc2nc(N(C)c3c(F)cc(S(C)(=O)=O)cc3F)nc(-c3cnn(C)c3)c2C2CC2)n[nH]1 [Compound 341] | 6.38
4 | Cc1cc(Nc2nc(N(C)c3ccc(S(C)(=O)=O)cc3F)nc(N3CCCC(S(C)(=O)=O)C3)c2C2CC2)n[nH]1 (centres unmarked) [Compound 111, 5-cyclopropyl-N^2-(2-fluoro-4-(methylsulfonyl)phenyl)-N^2-methyl-N^4-(5-methyl-1H-pyrazol-3-yl)-6-(3-(methylsulfonyl)piperidin-1-yl)pyrimidine-2,4-diamine] | 7.37
5 | Cc1ccn(-c2nc(N(C)c3ccc(S(C)(=O)=O)cc3F)nc(Nc3cc(C)[nH]n3)c2C2CC2)n1 [Compound 113] | 6.82
6 | Cc1cc(Nc2nc(N(C)c3c(F)cc(S(C)(=O)=O)cc3F)nc(-c3cnc(C)o3)c2C2CC2)n[nH]1 [Compound 156] | 7.96
7 | COc1c(Nc2cc(C)[nH]n2)nc(Sc2ccc(S(C)(=O)=O)cc2F)c(N(C)C)c1-c1cnn(C)c1 [Compound 97] | 5.92
8 | Cc1cc(Nc2nc(N(C)c3cc(F)c(S(C)(=O)=O)cc3F)nc(-c3cc4n(n3)CCOC4)c2C2CC2)n[nH]1 [Compound 243] | 7.80
9 | COCCn1cc(-c2nc(N(C)c3c(F)cc(S(C)(=O)=O)cc3F)nc(Nc3cc(C)[nH]n3)c2C2CC2)c(C)n1 [Compound 160] | 8.70
10 | COc1c(Nc2cc(C)[nH]n2)nc(N(C)c2ccc(S(C)(=O)=O)cc2F)nc1-c1ccn(C)n1 [Compound 6, N^2-(2-fluoro-4-(methylsulfonyl)phenyl)-5-methoxy-N^2-methyl-6-(1-methyl-1H-pyrazol-3-yl)-N^4-(5-methyl-1H-pyrazol-3-yl)pyrimidine-2,4-diamine] | 7.31
11 | Cc1cc(Nc2nc(N(C)c3c(F)cc(S(C)(=O)=O)cc3F)nc(-c3cnn([C@H]4C[C@@H](O)C4)c3)c2C2CC2)n[nH]1 [Compound 254] | 8.40
12 | COc1c(Nc2cc(C)[nH]n2)nc(N(C)c2ccc(-c3nnc(C)o3)cc2)nc1-c1cnn(C)c1 [Compound 72] | 6.09
13 | Cc1cc(Nc2nc(N(C)c3c(F)cc(S(C)(=O)=O)cc3F)nc(-c3cnn(CCO)c3C)c2C2CC2)n[nH]1 [Compound 201] | 8.15
14 | CCN(c1nc(Nc2cc(C)[nH]n2)c(OC)c(-c2cnn(C)c2)n1)c1ccc(S(C)(=O)=O)cc1F [Compound 3, N^2-ethyl-N^2-(2-fluoro-4-(methylsulfonyl)phenyl)-5-methoxy-N^4-(5-methyl-1H-pyrazol-3-yl)-6-(1-methyl-1H-pyrazol-4-yl)pyrimidine-2,4-diamine] | 7.17
15 | Cc1cc(Nc2nc(N(C)c3c(F)cc(S(C)(=O)=O)cc3F)nc(-c3cc4n(n3)CCOC4)c2C2CC2)n[nH]1 [Compound 240] | 8.40
16 | CNC(=O)Cn1cc(-c2nc(N(C)c3c(F)cc(S(C)(=O)=O)cc3F)nc(Nc3cc(C)[nH]n3)c2C2CC2)cn1 [Compound 171] | 7.64
17 | Cc1cc(Nc2nc(N(C)c3c(F)cc(S(C)(=O)=O)cc3F)nc(-c3cn(C(CO)CO)nc3C)c2C2CC2)n[nH]1 [Compound 177] | 7.42
18 | CCN(c1nc(Nc2cc(C)[nH]n2)c(C2CC2)c(-c2cn(C)cn2)n1)c1cc(F)c(S(C)(=O)=O)cc1F [Compound 246] | 7.70
19 | Cc1cc(Nc2nc(N(C)c3c(F)cc(S(C)(=O)=O)cc3F)nc(-c3cnn(C)c3C(=O)N(C)C3CC3)c2C2CC2)n[nH]1 [Compound 333] | 7.96
20 | COc1c(Nc2cc(C)[nH]n2)nc(N(C)c2ccc(S(C)(=O)=O)c(Cl)c2F)nc1-c1cnn(C)c1 [Compound 117] | 6.66
21 | Cc1cc(Nc2nc(N(C)c3c(F)cc(S(C)(=O)=O)cc3F)nc(-c3cnn([C@H]4C[C@H](O)C4)c3)c2C2CC2)n[nH]1 [Compound 253] | 8.15
22 | CCS(=O)(=O)c1ccc(N(C)c2nc(Nc3cc(C)[nH]n3)c(OC)c(-c3cnn(C)c3)n2)cc1 [Compound 70] | 6.77
23 | Cc1cc(Nc2nc(N(C)c3ccc(S(C)(=O)=O)cc3F)nc(-c3cnn(C)n3)c2C2CC2)n[nH]1 [Compound 109] | 7.31
24 | COc1ccc(F)c(N(C)c2nc(Nc3cc(C)[nH]n3)c(OC)c(-c3cnn(C)c3)n2)c1 [Compound 74] | 5.92
25 | Cc1cc(Nc2nc(N(C)c3c(F)cc(S(C)(=O)=O)cc3F)nc(-c3ncn(C)n3)c2C2CC2)n[nH]1 [Compound 215] | 7.16

Row | SMILES | pIC50
26 | COc1c(Nc2cc(C)[nH]n2)nc(N(C)c2cc3c(cc2F)OCO3)nc1-c1cnn(C)c1 [Compound 65] | 6.09
27 | COc1c(Nc2cc(C)[nH]n2)nc(N(C)c2ccc(S(C)(=O)=O)c(F)c2F)nc1-c1cnn(C)c1 [Compound 49] | 7.27
28 | Cc1cc(Nc2nc(N(C)c3c(F)cc(S(C)(=O)=O)cc3F)cc(-c3cnn(C)c3)c2C2CC2)n[nH]1 [Compound 92] | 7.28
29 | COc1c(Nc2cc(C)[nH]n2)nc(N(C)c2ccc(S(=O)(=O)CC(C)C)cc2)nc1-c1cnn(C)c1 [Compound 55] | 6.49
30 | Cc1cc(Nc2nc(N(C)c3c(F)cc(S(C)(=O)=O)cc3F)nc(-c3cc4[nH]c(=O)ccn4n3)c2C2CC2)n[nH]1 [Compound 286] | 7.62
31 | COc1c(Nc2cc(C)[nH]n2)nc(Oc2ccc(S(C)(=O)=O)cc2F)nc1-c1cnn(C)c1 [Compound 9, 2-(2-fluoro-4-(methylsulfonyl)phenoxy)-5-methoxy-N-(5-methyl-1H-pyrazol-3-yl)-6-(1-methyl-1H-pyrazol-4-yl)pyrimidin-4-amine] | 6.40
32 | Cc1cc(Nc2nc(N(C)c3c(F)cc(S(C)(=O)=O)cc3F)nc(-c3cn[nH]c3)c2C2CC2)n[nH]1 [Compound 40] | 8.00
33 | Cc1cc(Nc2nc(N(C)c3ccc(S(C)(=O)=O)cc3Br)nc(-c3cnn(C)c3)c2C2CC2)n[nH]1 [Compound 53] | 7.20
34 | COc1nn(C)cc1-c1nc(N(C)c2c(F)cc(S(C)(=O)=O)cc2F)nc(Nc2cc(C)[nH]n2)c1C1CC1 [Compound 147] | 8.30
35 | Cc1cc(Nc2nc(N(C)c3c(F)cc(S(C)(=O)=O)cc3F)nc(N3Cc4cnn(C)c4C3)c2C2CC2)n[nH]1 [Compound 271] | 7.22
36 | Cc1cc(Nc2nc(N(C)c3c(F)cc(S(C)(=O)=O)cc3F)nc(-c3cnc4n3CCOC4)c2C2CC2)n[nH]1 [Compound 302] | 8.10
37 | Cc1cc(Nc2nc(N(C)c3c(F)cc(S(C)(=O)=O)cc3F)nc(Nc3ccn(C)n3)c2C2CC2)n[nH]1 [Compound 325] | 7.28
38 | Cc1cc(Nc2nc(N(C)c3c(F)cc(CC(=O)N4CCC4)cc3F)nc(-c3cn(C)cn3)c2C2CC2)n[nH]1 [Compound 363] | < 5.30
39 | Cc1cc(Nc2nc(N(C)c3cc(F)c(S(C)(=O)=O)cc3F)nc(-c3ccn(CCO)n3)c2C2CC2)n[nH]1 [Compound 230] | 7.59
40 | Cc1cc(Nc2nc(N(C)c3c(F)cc(S(C)(=O)=O)cc3F)nc(-c3ccn(CCO)n3)c2C2CC2)n[nH]1 [Compound 169] | 8.40
41 | Cc1cc(Nc2nc(N(C)c3cc(F)c(S(C)(=O)=O)cc3F)nc(-c3cn(C(C)C)cn3)c2C2CC2)n[nH]1 [Compound 200] | 8.10
42 | COc1c(Nc2cc(C)[nH]n2)nc(N(C)c2ccc(Br)cc2F)nc1-c1cnn(C)c1 [Compound 75] | 6.22
43 | COc1c(Nc2cc(C)[nH]n2)nc(N(C)c2ccc(S(=O)(=O)C(C)C)cc2)nc1-c1cnn(C)c1 [Compound 87] | 6.80
44 | Cc1cc(Nc2nc(N(C)c3c(F)cc(S(C)(=O)=O)cc3F)nc(-c3cn4c(n3)CNCC4)c2C2CC2)n[nH]1 [Compound 211] | 7.40
45 | COCCn1ncc(-c2nc(N(C)c3ccc(S(C)(=O)=O)cc3F)nc(Nc3cc(C)[nH]n3)c2C2CC2)c1C [Compound 220] | 7.42
46 | Cc1cc(Nc2nc(N(C)c3c(F)cc(S(C)(=O)=O)cc3F)nc(N3CC(n4ccnc4)C3)c2C2CC2)n[nH]1 [Compound 236] | 7.06
47 | Cc1cc(Nc2nc(N(C)c3cc(F)c(S(C)(=O)=O)cc3F)nc(-c3cn(C4CC4)c(C)n3)c2C2CC2)n[nH]1 [Compound 242] | 8.30
48 | COc1c(Nc2cc(C)[nH]n2)nc(N(C)c2ccc(S(=O)(=O)C(C)(C)C)cc2)nc1-c1cnn(C)c1 [Compound 86] | 6.92
49 | COc1c(Nc2cc(C)[nH]n2)nc(N(C)c2ccc(S(C)(=O)=O)nc2C)nc1-c1cnn(C)c1 [Compound 54] | 5.68
50 | Cc1cc(Nc2nc(Nc3c(F)cc(S(C)(=O)=O)cc3F)nc(-c3cn(C)cn3)c2C2CC2)n[nH]1 [Compound 189] | 6.82
